Reference: patent US20210355235A1, “Compositions and Methods For Treating Cancer with Anti-Renalase antibodies and Anti-PD1 antibodies” (YALE UNIVERSITY, priority 2017, published 2021)

What was measured:
[1] = tested on: renal ischemia; experiment: renal ischemia and reperfusion in WT mice; assay type: in vivo, mouse; conditions: 30 minutes of renal ischemia and reperfusion
Procedure: FIG. 3 is a chart showing that ERK or AKT inhibition abrogates protective effect of renalase peptide: WT mice subjected to sham surgery or to 30 minutes of renal ischemia and reperfusion; RP-[…] or vehicle (saline) injected 10 minutes before renal ischemia. ERK inhibitor PD98059 or the PI3K/AKT inhibitor wortmannin abrogated RP-[…]'s protective effect.

[2] = tested on: MiaPaCa2 cells; conditions: pretreatment before rRNLS 30 μg/ml

| Structure (SMILES) | effect on RP-H220's protective effect [1] | effect on rRNLS' protective effect [2] |
| --- | --- | --- |
| COc1cccc(-c2cc(=O)c3ccccc3o2)c1N [PD98059] | abrogated | – |
| N#CC(=C(/N)Sc1ccccc1N)/C(C#N)=C(\N)Sc1ccccc1N [U0126] | – | abrogated |
